Test results reported in patent US20230111310A1, “CARBOXYLIC ACID DERIVATIVE-SUBSTITUTED IMINO ARYL COMPOUND, PREPARATION METHOD THEREFOR, HERBICIDAL COMPOSITION AND USE THEREOF” (Qingdao Kingagroot Chemical Compound Co., Ltd., priority 2020, published 2023).

What was measured:
Test in all cases: Weeding effect in post-emergence stage
Type in all cases: in vivo
Eleusine indica = conditions: for Weeding effect in post-emergence stage, Eleusine indica (level): fresh weight control rate level; for Weeding effect in post-emergence stage, Eleusine indica: level of fresh weight growth control rate
Procedure, shortened: (§1)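 Compound, dissolved in acetone and diluted in water with Tween 80 plus methyl oleate EC (1.5 liter/ha), is sprayed onto 2-3 leaf potted plants. Rates span 7.5–500 g/ha. After 3 weeks of greenhouse culture, weeding effect is counted as the mean of triplicates.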

Alopecurus japonicus = conditions: for Weeding effect in post-emergence stage, Alopecurus japonicus (level): fresh weight control rate level; for Weeding effect in post-emergence stage, Alopecurus japonicus: level of fresh weight growth control rate
Procedure, shortened: as §1

Digitaria sanguinalis = conditions: for Weeding effect in post-emergence stage, Digitaria sanguinalis (level): fresh weight control rate level; for Weeding effect in post-emergence stage, Digitaria sanguinalis: level of fresh weight growth control rate
Procedure, shortened: as §1

Abutilon theophrasti = conditions: for Weeding effect in post-emergence stage, Abutilon theophrasti (level): fresh weight control rate level; for Weeding effect in post-emergence stage, Abutilon theophrasti: level of fresh weight growth control rate
Procedure, shortened: as §1

Setaria viridis = conditions: for Weeding effect in post-emergence stage, Setaria viridis (level): fresh weight control rate level; for Weeding effect in post-emergence stage, Setaria viridis: level of fresh weight growth control rate
Procedure, shortened: as §1

Echinochloa crusgalli = conditions: for Weeding effect in post-emergence stage, Echinochloa crusgalli (level): fresh weight control rate level; for Weeding effect in post-emergence stage, Echinochloa crusgalli: level of fresh weight growth control rate
Procedure, shortened: as §1

SMILES | Weeding effect in post-emergence stage, Eleusine indica (Eleusine indica; Dose 15 g/ha) | Weeding effect in post-emergence stage, Alopecurus japonicus (Alopecurus japonicus; Dose 15 g/ha) | Weeding effect in post-emergence stage, Digitaria sanguinalis (Digitaria sanguinalis; Dose 15 g/ha) | Weeding effect in post-emergence stage, Abutilon theophrasti (Abutilon theophrasti; Dose 15 g/ha) | Weeding effect in post-emergence stage, Setaria viridis (Setaria viridis; Dose 15 g/ha) | Weeding effect in post-emergence stage, Echinochloa crusgalli (Echinochloa crusgalli; Dose 15 g/ha) | Weeding effect in post-emergence stage, Eleusine indica (level) (Eleusine indica; Dose 15 g/ha) | Weeding effect in post-emergence stage, Alopecurus japonicus (level) (Alopecurus japonicus; Dose 15 g/ha) | Weeding effect in post-emergence stage, Digitaria sanguinalis (level) (Digitaria sanguinalis; Dose 15 g/ha) | Weeding effect in post-emergence stage, Abutilon theophrasti (level) (Abutilon theophrasti; Dose 15 g/ha) | Weeding effect in post-emergence stage, Setaria viridis (level) (Setaria viridis; Dose 15 g/ha) | Weeding effect in post-emergence stage, Echinochloa crusgalli (level) (Echinochloa crusgalli; Dose 15 g/ha) | other results
COC(=O)C(C)O/N=C/c1cc(-n2c(=O)cc(C(F)(F)F)n(C)c2=S)c(F)cc1Br (racemic) [Compound 394] |  |  |  |  |  |  |  |  |  |  |  |  | Weeding effect in post-emergence stage, Eleusine indica (level) (Eleusine indica; Dose 60 g/ha): 5 (Level 5: growth control rate is above 85%); Weeding effect in post-emergence stage, Alopecurus japonicus (level) (Alopecurus japonicus; Dose 60 g/ha): 5 (Level 5: growth control rate is above 85%); Weeding effect in post-emergence stage, Digitaria sanguinalis (level) (Digitaria sanguinalis; Dose 60 g/ha): 5 (Level 5: growth control rate is above 85%); Weeding effect in post-emergence stage, Abutilon theophrasti (level) (Abutilon theophrasti; Dose 60 g/ha): 5 (Level 5: growth control rate is above 85%); Weeding effect in post-emergence stage, Setaria viridis (level) (Setaria viridis; Dose 60 g/ha): 5 (Level 5: growth control rate is above 85%); Weeding effect in post-emergence stage, Echinochloa crusgalli (level) (Echinochloa crusgalli; Dose 60 g/ha): 5 (Level 5: growth control rate is above 85%)
CCOC(=O)[C@H](O/N=C/c1cc(-n2c(=O)n(C)c(=S)n(C)c2=O)c(F)cc1Cl)C1CC1 [76(R)] | 5 (Level 5: growth control rate is above 85%) | 5 (Level 5: growth control rate is above 85%) | 5 (Level 5: growth control rate is above 85%) | 5 (Level 5: growth control rate is above 85%) | 5 (Level 5: growth control rate is above 85%) | 5 (Level 5: growth control rate is above 85%) |  |  |  |  |  |  | 
COC(=O)CSC(=O)[C@@H](C)O/N=C/c1cc(-n2c(=O)cc(C(F)(F)F)n(C)c2=O)c(F)cc1Cl [406(R)] |  |  |  |  |  |  | 5 (Level 5: growth control rate is above 85%) | 5 (Level 5: growth control rate is above 85%) | 5 (Level 5: growth control rate is above 85%) | 5 (Level 5: growth control rate is above 85%) | 5 (Level 5: growth control rate is above 85%) | 5 (Level 5: growth control rate is above 85%) | 
C[C@@H](O/N=C/c1cc(-n2c(=O)cc(C(F)(F)F)n(C)c2=O)c(F)cc1Cl)C(=O)OC/C=C/Cl [225(R)] | 5 (Level 5: growth control rate is above 85%) | 5 (Level 5: growth control rate is above 85%) | 5 (Level 5: growth control rate is above 85%) | 5 (Level 5: growth control rate is above 85%) | 5 (Level 5: growth control rate is above 85%) | 5 (Level 5: growth control rate is above 85%) |  |  |  |  |  |  | 
CC(ON=Cc1cc(-n2c(=O)cc(C(F)(F)F)n(C)c2=O)c(F)cc1Cl)C(=O)NS(=O)(=O)CCl (stereo not drawn) [Compound 503] |  |  |  |  |  |  | 5 (Level 5: growth control rate is above 85%) | 5 (Level 5: growth control rate is above 85%) | 5 (Level 5: growth control rate is above 85%) | 5 (Level 5: growth control rate is above 85%) | 5 (Level 5: growth control rate is above 85%) | 5 (Level 5: growth control rate is above 85%) | 
CCOC(=O)[C@@H](C)O/N=C/c1cc(-n2c(=O)n(C)c(=S)n(C)c2=S)c(F)cc1Br [161(R)] | 5 (Level 5: growth control rate is above 85%) | 4 (Level 4: growth control rate is greater than or equal to 60% and less than 85%) | 4 (Level 4: growth control rate is greater than or equal to 60% and less than 85%) | 5 (Level 5: growth control rate is above 85%) | 5 (Level 5: growth control rate is above 85%) | 5 (Level 5: growth control rate is above 85%) |  |  |  |  |  |  | 
CC(=O)COC(=O)C(C)O/N=C/c1cc(-n2c(=O)cc(C(F)(F)F)n(C)c2=O)c(F)cc1Cl (stereo not drawn) [Compound 238] | 5 (Level 5: growth control rate is above 85%) | 5 (Level 5: growth control rate is above 85%) | 5 (Level 5: growth control rate is above 85%) | 5 (Level 5: growth control rate is above 85%) | 5 (Level 5: growth control rate is above 85%) | 5 (Level 5: growth control rate is above 85%) |  |  |  |  |  |  | 
COC(=O)CSC(=O)C(C)O/N=C/c1cc(-n2c(=O)cc(C(F)(F)F)n(C)c2=O)c(F)cc1Cl (stereo not drawn) [Compound 406] |  |  |  |  |  |  | 5 (Level 5: growth control rate is above 85%) | 4 (Level 4: growth control rate is greater than or equal to 60% and less than 85%) | 5 (Level 5: growth control rate is above 85%) | 5 (Level 5: growth control rate is above 85%) | 5 (Level 5: growth control rate is above 85%) | 5 (Level 5: growth control rate is above 85%) | 
COC/C(C)=N/OC(=O)C(C)O/N=C/c1cc(-n2c(=O)cc(C(F)(F)F)n(C)c2=O)c(F)cc1Cl (stereo not drawn) [Compound 253] | 5 (Level 5: growth control rate is above 85%) | 5 (Level 5: growth control rate is above 85%) | 5 (Level 5: growth control rate is above 85%) | 5 (Level 5: growth control rate is above 85%) | 5 (Level 5: growth control rate is above 85%) | 5 (Level 5: growth control rate is above 85%) |  |  |  |  |  |  | 
CCSC(=O)C(C)O/N=C/c1cc(-n2c(=O)n(C)c(=O)n(C)c2=O)c(F)cc1Cl (stereo not drawn) [Compound 491] |  |  |  |  |  |  | 5 (Level 5: growth control rate is above 85%) | 5 (Level 5: growth control rate is above 85%) | 5 (Level 5: growth control rate is above 85%) | 5 (Level 5: growth control rate is above 85%) | 5 (Level 5: growth control rate is above 85%) | 5 (Level 5: growth control rate is above 85%) | 
COC(=O)C(C)O/N=C/c1cc(-n2c(=O)n(C)c(=S)n(C)c2=O)c(F)cc1C#N (racemic) [Compound 87] | 5 (Level 5: growth control rate is above 85%) | 5 (Level 5: growth control rate is above 85%) | 5 (Level 5: growth control rate is above 85%) | 5 (Level 5: growth control rate is above 85%) | 5 (Level 5: growth control rate is above 85%) | 5 (Level 5: growth control rate is above 85%) |  |  |  |  |  |  | 
COC(=O)CCOC(=O)[C@@H](C)O/N=C/c1cc(-n2c(=O)cc(C(F)(F)F)n(C)c2=O)c(F)cc1Cl [240(R)] |  |  |  |  |  |  |  |  |  |  |  |  | Weeding effect in post-emergence stage, Eleusine indica (Eleusine indica; Dose 30 g/ha): 5 (Level 5: growth control rate is above 85%); Weeding effect in post-emergence stage, Alopecurus japonicus (Alopecurus japonicus; Dose 30 g/ha): 5 (Level 5: growth control rate is above 85%); Weeding effect in post-emergence stage, Digitaria sanguinalis (Digitaria sanguinalis; Dose 30 g/ha): 5 (Level 5: growth control rate is above 85%); Weeding effect in post-emergence stage, Abutilon theophrasti (Abutilon theophrasti; Dose 30 g/ha): 5 (Level 5: growth control rate is above 85%); Weeding effect in post-emergence stage, Setaria viridis (Setaria viridis; Dose 30 g/ha): 5 (Level 5: growth control rate is above 85%); Weeding effect in post-emergence stage, Echinochloa crusgalli (Echinochloa crusgalli; Dose 30 g/ha): 5 (Level 5: growth control rate is above 85%)
C[C@@H](O/N=C/c1cc(-n2c(=O)n(C)c(=S)n(C)c2=O)c(F)cc1Cl)C(=O)O [438(R)] |  |  |  |  |  |  |  |  |  |  |  |  | Weeding effect in post-emergence stage, Eleusine indica (level) (Eleusine indica; Dose 30 g/ha): 5 (Level 5: growth control rate is above 85%); Weeding effect in post-emergence stage, Alopecurus japonicus (level) (Alopecurus japonicus; Dose 30 g/ha): 5 (Level 5: growth control rate is above 85%); Weeding effect in post-emergence stage, Digitaria sanguinalis (level) (Digitaria sanguinalis; Dose 30 g/ha): 5 (Level 5: growth control rate is above 85%); Weeding effect in post-emergence stage, Abutilon theophrasti (level) (Abutilon theophrasti; Dose 30 g/ha): 5 (Level 5: growth control rate is above 85%); Weeding effect in post-emergence stage, Setaria viridis (level) (Setaria viridis; Dose 30 g/ha): 5 (Level 5: growth control rate is above 85%); Weeding effect in post-emergence stage, Echinochloa crusgalli (level) (Echinochloa crusgalli; Dose 30 g/ha): 5 (Level 5: growth control rate is above 85%)
